The conditions of data set [1]: rats fed Mallotus philippensis extract; cited from earlier work.
Another data set addresses KCNA1 (Homo sapiens, UniProt Q09470). Kind of data set: TEVC of KCNA1 expressed in Xenopus oocytes. It counts as cell-based. The source says: cRNA transcripts encoding human KCNA1, KCNQ1, KCNQ2, KCNQ3, KCNQ4, or KCNQ5 were generated by in vitro transcription using the T7 polymerase message machine kit (Thermo Fisher Scientific), after vector linearization, from cDNA sub-cloned into plasmids incorporating X. laevis β-globin 5′ and 3′ UTRs flanking the coding region to enhance translation and cRNA stability. cRNA was quantified by spectrophotometry. Mutant cDNAs were generated by site-directed mutagenesis using a QuikChange kit according to manufacturer's protocol (Stratagene, San Diego, Calif.) and corresponding cRNAs prepared as above. Defolliculated stage V and VI X. laevis oocytes (Ecocyte Bioscience, Austin, Tex.) were injected with Kv channel a subunit cRNAs (10 ng total per oocyte). […]
TEVC recording was performed at room temperature with an OC-725C amplifier (Warner Instruments, Hamden, Conn.) and pClamp10.2 software (Molecular Devices, Sunnyvale, Calif.) 3-5 days after cRNA injection as described in the section above. […] Currents were recorded in response to pulses between −80 and +40 mV at 20 mV intervals, or a single pulse to +40 mV, from a holding potential of −80 mV, to yield current-voltage relationships, current magnitude, and for quantifying activation rate. […]

A further data set deals with KCNQ1/KCNE1 (Homo sapiens, UniProt P51787). Kind of data set: TEVC of KCNQ1/KCNE1 channels. The format is cell-based. The source says: As previously described (12), we generated cRNA transcripts encoding human KCNA1, KCNE1, KCNE2, KCNE3, KCNQ1, KCNQ2, KCNQ3, KCNQ4 or KCNQ5 by in vitro transcription using the T7 polymerase mMessage mMachine kit (Thermo Fisher Scientific), after vector linearization, from cDNA sub-cloned into plasmids incorporating Xenopus laevis β-globin 5′ and 3′ UTRs flanking the coding region to enhance translation and cRNA stability. We quantified cRNA by spectrophotometry. We generated mutant KCNQ2 and KCNQ3 cDNAs by site-directed mutagenesis with a QuikChange kit (Stratagene, San Diego, Calif.) and prepared the cRNAs as above. We injected defolliculated stage V and VI Xenopus laevis oocytes (Ecocyte Bioscience, Austin, Tex. and Xenoocyte, Dexter, Mich., US) with KCNE and/or KCNQ cRNAs (5-20 ng). […]
We performed TEVC at room temperature using an OC-725C amplifier (Warner Instruments, Hamden, Conn.) and pClamp10 software (Molecular Devices, Sunnyvale, Calif.) 2-5 days after cRNA injection as described in the section above. […] We recorded currents in response to voltage pulses between −120 or −80 mV and +40 mV at 20 mV intervals from a holding potential of −80 mV, to yield current-voltage relationships, current magnitude, and for quantifying activation rate. We analyzed data using Clampfit (Molecular Devices) and Graphpad Prism software (GraphPad, San Diego, Calif., USA); values are stated as mean±SEM. […]

The subject of another data set is bacteria. Conditions: read-out: bactericidal activity EC50; cited from earlier work.
In another data set the target is KCNQ2 (Homo sapiens, UniProt O43526). Kind of data set: [3H]GABA competition binding to oocytes expressing KCNQ2. Conditions: 100 μM, 10 μM 3H-GABA. The method, then:
Each group of oocytes was placed in a round-bottomed, 15-ml falcon tube, washed with ND96, and then resuspended in ND96 containing 10 μM γ-[2,3-^3H(N)]-aminobutyric acid (^3H-GABA) (Perkin Elmer, Waltham, Mass.) at 25-40 Ci/mMol specific activity either alone, or with 100 μM 2FPG or 100 μM 3FMSG, for a 30 minute incubation at room temperature. Oocytes were then washed four times in 16° C. ND96, transferred to individual wells in a 96 well plate and lysed in 0.2% SDS in ND96. Each oocyte lysate was transferred to a scintillation vial containing 5 ml Cytoscint scintillation cocktail fluid (MP Biomedicals, Santa Ana, Calif.). Vials were capped, shaken, and then allowed to sit at room temperature for at least 30 min before scintillation counting in a Beckmann Coulter LS6500 liquid scintillation counter.

Here are results for three compounds from US12268683B2, “Compounds and methods for synergistic activation of M channels” (THE REGENTS OF THE UNIVERSITY OF CALIFORNIA, priority 2018, dated 2025).

KCNA1, sequence (Q09470 whole entry): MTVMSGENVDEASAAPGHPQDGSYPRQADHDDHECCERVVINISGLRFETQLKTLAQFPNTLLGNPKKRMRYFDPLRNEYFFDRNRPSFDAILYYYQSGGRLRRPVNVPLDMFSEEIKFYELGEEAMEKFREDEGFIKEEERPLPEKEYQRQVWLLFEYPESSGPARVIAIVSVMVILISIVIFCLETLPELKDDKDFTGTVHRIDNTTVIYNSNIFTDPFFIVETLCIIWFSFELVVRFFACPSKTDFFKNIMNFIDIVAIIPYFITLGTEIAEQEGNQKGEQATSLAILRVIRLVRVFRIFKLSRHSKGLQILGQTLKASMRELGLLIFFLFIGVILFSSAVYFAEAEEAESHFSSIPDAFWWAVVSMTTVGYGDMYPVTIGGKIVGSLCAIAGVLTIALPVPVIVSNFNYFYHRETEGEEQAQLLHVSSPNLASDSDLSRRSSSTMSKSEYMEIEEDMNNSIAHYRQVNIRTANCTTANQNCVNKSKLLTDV

For `CC(=O)c1c(O)c(C)c(O)c(Cc2c(O)c3c(c(C(=O)/C=C/c4ccccc4)c2O)OC(C)(C)C=C3)c1O` [MTX, mallotoxin], in data set [1], the oral bioavailability is over 20% and the plasma concentration result was “exceeded 2 μg/ml”. Besides, at KCNA1, the “effect on KCNA1 (in words)” value is recorded as “no effect”.
Turning to `CCCCCCCCC/C=C/C=O` [(E)-2-dodecenal], the “sensitivity of KCNQ1-KCNE1, fold less sensitive than KCNQ1” value on KCNQ1/KCNE1 is on record as “> twofold”. The EC50 at KCNQ1/KCNE1 (read-out: EC50 of KCNQ1/KCNE1 activation) was 260 ± 100 nM; with bacteria, over 30000 nM.
With `CS(=O)(=O)N(CC(=O)O)c1cccc(F)c1` [3FMSG], at KCNQ2, the “competition with [3H]GABA binding to KCNQ2” value is reported as “able to compete out GABA binding”.
